Assay results: article PMC11396129, “Oxindole–benzothiazole hybrids as CDK2 inhibitors and anticancer agents: design, synthesis and biological evaluation” (BMC Chemistry, 2024)

Key:
Format in all cases: cell-based, human
UO-31 = assay: NCI 60 panel growth inhibition (SRB), renal cancer; conditions: UO-31, 10 μM
Protocol: (§1) Screening of cytotoxic activity against a panel of sixty human tumor cell lines The selected compounds by NCI were evaluated for their anticancer activity in a two- stage process. […] Then, the output from the single dose screen is reported as a mean graph. […] Assay protocol. […] For a typical screening experiment, cells are inoculated into 96 well microtiter plates in 100 µL at plating densities ranging from 5000 to 40,000 cells/well depending on the doubling time of individual cell lines. […] After 24 h, two plates of each cell line are fixed in situ with TCA, to represent a measurement of the cell population for each cell line at the time of drug addition (Tz). The experimental drugs are solubilized in dimethyl sulfoxide at 400-fold the desired final maximum test concentration and stored frozen prior to use. At the time of drug addition, an aliquot of frozen concentrate is thawed and diluted to twice the desired final maximum test concentration with complete medium containing 50 µg/mL gentamicin. Additional four, 10-fold or ½ log serial dilutions are made to provide a total of five drug concentrations plus control. […] For adherent cells, the assay is terminated by the addition of cold TCA. […] The supernatant is discarded, and the plates are washed five times with tap water and air dried. […] Using the seven absorbance measurements [time zero, (Tz), control growth, (C), and test growth in the presence of drug at the five concentration levels (Ti)], the percentage growth is calculated at each of the drug concentrations levels. Percentage growth inhibition is calculated as: [(Ti Tz)/(C–Tz)] x 100 for concentrations for which Ti>/=Tz and [(Ti-Tz)/Tz] x 100 for concentrations for which Ti < Tz. Three dose response parameters are calculated for each experimental agent. […] The drug concentration resulting in total growth inhibition (TGI) is calculated from Ti = Tz. […] Values are calculated for each of these three parameters if the level of activity is reached; however, if the effect is not reached or is exceeded, the value for that parameter is expressed as greater or less than the maximum or minimum concentration tested.

A498 = assay: NCI 60 panel growth inhibition (SRB), renal cancer; conditions: A498, 10 μM
Protocol: as §1

RXF 393 = assay: NCI 60 panel growth inhibition (SRB), renal cancer; conditions: RXF 393, 10 μM
Protocol: as §1

SN12C = assay: NCI 60 panel growth inhibition (SRB), renal cancer; conditions: 10 μM
Protocol: as §1

CAKI-1 = assay: NCI 60 panel growth inhibition (SRB), renal cancer; conditions: CAKI-1, 10 μM
Protocol: as §1

ACHN = assay: NCI 60 panel growth inhibition (SRB), renal cancer; conditions: 10 μM
Protocol: as §1

TK-10 = assay: NCI 60 panel growth inhibition (SRB), renal cancer; conditions: TK-10, 10 μM
Protocol: as §1

786-0 = assay: NCI 60 panel growth inhibition (SRB), renal cancer; conditions: 786-0, 10 μM
Protocol: as §1

[1] = test system: NCI 60 cancer cell line panel; assay: NCI 60 panel growth inhibition (SRB), whole panel; conditions: mean over NCI 60 panel, 10 μM
Protocol: as §1

SK-MEL-28 = assay: NCI 60 panel growth inhibition (SRB), melanoma; conditions: SK-MEL-28, 10 μM
Protocol: as §1

SK-MEL-5 = assay: NCI 60 panel growth inhibition (SRB), melanoma; conditions: SK-MEL-5, 10 μM
Protocol: as §1

LOX IMVI = assay: NCI 60 panel growth inhibition (SRB), melanoma; conditions: 10 μM
Protocol: as §1

M14 = assay: NCI 60 panel growth inhibition (SRB), melanoma; conditions: M14, 10 μM
Protocol: as §1

MDA-MB-435 = assay: NCI 60 panel growth inhibition (SRB), melanoma; conditions: MDA-MB-435, 10 μM
Protocol: as §1

UACC-257 = assay: NCI 60 panel growth inhibition (SRB), melanoma; conditions: UACC-257, 10 μM
Protocol: as §1

UACC-62 = assay: NCI 60 panel growth inhibition (SRB), melanoma; conditions: UACC-62, 10 μM
Protocol: as §1

MDA-MB-231/ATCC = assay: NCI 60 panel growth inhibition (SRB), breast cancer; conditions: 10 μM
Protocol: as §1

T-47D = assay: as above; conditions: 10 μM
Protocol: as §1

HS 578T = assay: as above; conditions: 10 μM
Protocol: as §1

BT-549 = assay: as above; conditions: BT-549, 10 μM
Protocol: as §1

MDA-MB-468 = assay: as above; conditions: MDA-MB-468, 10 μM
Protocol: as §1

MCF7 = assay: as above; conditions: MCF7, 10 μM
Protocol: as §1

SF-268 = assay: NCI 60 panel growth inhibition (SRB), CNS cancer; conditions: SF-268, 10 μM
Protocol: as §1

SF-539 = assay: NCI 60 panel growth inhibition (SRB), CNS cancer; conditions: SF-539, 10 μM
Protocol: as §1

SF-295 = assay: NCI 60 panel growth inhibition (SRB), CNS cancer; conditions: SF-295, 10 μM
Protocol: as §1

SNB-75 = assay: NCI 60 panel growth inhibition (SRB), CNS cancer; conditions: SNB-75, 10 μM
Protocol: as §1

SNB-19 = assay: NCI 60 panel growth inhibition (SRB), CNS cancer; conditions: SNB-19, 10 μM
Protocol: as §1

HCC-2998 = assay: NCI 60 panel growth inhibition (SRB), colon cancer; conditions: HCC-2998, 10 μM
Protocol: as §1

COLO 205 = assay: NCI 60 panel growth inhibition (SRB), colon cancer; conditions: COLO 205, 10 μM
Protocol: as §1

HCT-15 = assay: NCI 60 panel growth inhibition (SRB), colon cancer; conditions: HCT-15, 10 μM
Protocol: as §1

SW-620 = assay: NCI 60 panel growth inhibition (SRB), colon cancer; conditions: SW-620, 10 μM
Protocol: as §1

KM12 = assay: NCI 60 panel growth inhibition (SRB), colon cancer; conditions: KM12, 10 μM
Protocol: as §1

HCT-116 = assay: NCI 60 panel growth inhibition (SRB), colon cancer; conditions: HCT-116, 10 μM
Protocol: as §1

MALME-3M = assay: NCI 60 panel growth inhibition (SRB), melanoma; conditions: 10 μM
Protocol: as §1

Structure (SMILES) | GI% (UO-31) | GI% (A498) | GI% (RXF 393) | GI% (SN12C) | GI% (CAKI-1) | GI% (ACHN) | GI% (TK-10) | GI% (786-0) | GI% (SK-MEL-28) | GI% (SK-MEL-5) | GI% (LOX IMVI) | GI% (M14) | GI% (MDA-MB-435) | GI% (UACC-257) | GI% (UACC-62) | GI% (MDA-MB-231/ATCC) | GI% (T-47D) | GI% (BT-549) | GI% (MDA-MB-468) | GI% (MCF7) | also measured
COc1cccc(-c2nc3ccccc3s2)c1OCC(=O)NN=C1C(=O)Nc2ccc(Cl)cc21 [Compound 9k, 2-(2-(Benzo[d]thiazol-2-yl)-6-methoxyphenoxy)-N′-(5-chloro-2-oxoindolin-3-ylidene)acetohydrazide] | 33.24% | – (GI% < 5%) | 37.81% | 14.00% | 39.78% | 26.60% | – (GI% < 5%) | 22.12% | – (GI% < 5%) | 23.55% | 13.16% | – (GI% < 5%) | – (GI% < 5%) | – (GI% < 5%) | 32.61% | 19.83% | 40.62% | 7.55% | 27.13% | 35.93% | Mean GI% [1]: 14.92%; GI% (HS 578T): 8.19%; GI% (SF-268): – (GI% < 5%); GI% (SF-539): 30.36%; GI% (SF-295): 38.31%; GI% (SNB-75): – (GI% < 5%); GI% (SNB-19): – (GI% < 5%); GI% (HCC-2998): – (GI% < 5%); GI% (COLO 205): – (GI% < 5%); GI% (HCT-15): 31.91%; GI% (SW-620): – (GI% < 5%); GI% (KM12): 22.47%; GI% (HCT-116): 13.42%
CNC(=O)c1nn(C)c2c1C(C)(C)Cc1cnc(Nc3ccc(N4CCN(C)CC4)cc3)nc1-2 [Milciclib, reference compound] | 108.7% | 161.60% | 148.20% | 88.70% | 92.30% | 90.4% | 112.5% | 87.70% | 83.80% | 92.70% | 94.70% | 87.5% | 78.9% | 114.80% | 109.5% | 85.30% | 105.70% | 94.80% | 113.40% | 89.60% | Mean GI% [1]: > 100%; Mean GI% ([1]; listed as milciclib): more than 100%; GI% (MALME-3M): 108.70%; GI% (SF-268): 92.00%; GI% (SF-539): 128.60%; GI% (SF-295): 84.70%; GI% (SNB-75): 120.6%; GI% (SNB-19): 87.7%; GI% (HCC-2998): 89.6%; GI% (COLO 205): 180.1%; GI% (HCT-15): 96.9%; GI% (SW-620): 88.5%; GI% (KM12): 99.4%; GI% (HCT-116): 99.8%
O=C(COc1ccccc1-c1nc2ccccc2s1)NN=C1C(=O)Nc2ccc(Cl)cc21 [Compound 9e, 2-(2-(Benzo[d]thiazol-2-yl)phenoxy)-N′-(5-chloro-2-oxoindolin-3-ylidene)acetohydrazide] | – (GI% < 5%) | – (GI% < 5%) | – (GI% < 5%) | 8.28% | 6.21% | 18.45% | – (GI% < 5%) | – (GI% < 5%) | – (GI% < 5%) | 5.89% | 8.86% | – (GI% < 5%) | – (GI% < 5%) | – (GI% < 5%) | 10.86% | 15.59% | – (GI% < 5%) | – (GI% < 5%) | 5.76% | 15.86% | GI% (MALME-3M): – (GI% < 5%); GI% (HS 578T): – (GI% < 5%); GI% (SF-268): – (GI% < 5%); GI% (SF-539): – (GI% < 5%); GI% (SF-295): – (GI% < 5%); GI% (SNB-75): – (GI% < 5%); GI% (SNB-19): – (GI% < 5%); GI% (HCC-2998): – (GI% < 5%); GI% (COLO 205): – (GI% < 5%); GI% (HCT-15): – (GI% < 5%); GI% (SW-620): – (GI% < 5%); GI% (KM12): – (GI% < 5%); GI% (HCT-116): – (GI% < 5%)
